Among the data in patent US5516784A, “Anti-HIV (AIDS) agents” (Schering Corporation, priority 1994, dated 1996) are IC50 values, retold here.

Values after ≈ are worked out from the molar mass of the structure shown.

Experiment [1] addresses T1, HIV1 protease (Human immunodeficiency virus type 1 group M subtype B, UniProt P04585). As to the kind of experiment: Test 1: inhibition of proteolytic activity of HIV-1 protease (HPLC). It is filed as biochemical. Conditions: HPLC; HIV Substrate III; read-out: Enzyme Assays (HPLC) IC50. The arrangement: proteolytic activity of HIV-1 protease. As for the experimental part: TEST I-INHIBITION OF PROTEOLYTIC ACTIVITY OF HIV-1-PROTEASE
The ability of compounds of the invention to inhibit the proteolytic activity of HIV-1 protease was determined by using the method of Louis, et al., Biochem. Biophys. Res. Comm. 159:87-94, (1989), which is herein incorporated by reference. In using the method of Louis et al., HIV Substrate III, His-Lys-Ala-Arg-VaI-Leu-pNO2 Phe-Glu-Ala-Nle-Ser-NH2 purchased from Bachem Bioscience, Inc. Philadelphia, Pa. was used in place of the nonapeptide substrate […]amide.

The next experiment has as its system HIV-1, isolate III B. As to the kind of experiment: Test 2: inhibition of the growth of HIV-1 in tissue culture cells (CEM-SS, syncytia formation). The experiment is classed as cell-based. Conditions: Human immunodeficiency virus 1, 168 h, 7 days, read-out: HIVMIC IC50. The text has this:
TEST 2-INHIBITION OF THE GROWTH OF HIV-1 IN TISSUE CULTURE CELLS
This test measured the capability of the compounds to inhibit the growth of HIV-1 in tissue culture cells. CEM-SS cells (human T-lymphocyte derived tissue culture cells) were infected with HIV-1, isolate III B which was produced in tissue culture. After 7 days, the virus has killed the cells as monitored by extensive syncytia formation (cell fusion). The test measured the capability of the chemical synthetic compounds to prevent syncytia formation and cell death. CEM cells were grown at 37° C. in an atmosphere of 5% CO2. HIV isolate III B was prepared by growth in and crude purification from CEM cells. The chemical synthetic compound was added to 96 well microtiter plates and diluted in varying steps across the wells of the plate. Cells and virus were added to each well and the concentration of the chemical synthetic compound required to inhibit syncytia formation by 50% (the IC50) after 7 days was determined. The viability of CEM cells which are not infected with HIV-1 isolate III B was simultaneously determined by the MTT assay, as described in Mossman, J. Immunolog. Methods 65:55-63, 1983, which is herein incorporated by reference.

In experiment [2] the target is T1, HIV1 protease. As to the kind of experiment: Test 3: inhibition of proteolytic activity of HIV-1 protease by scintillation proximity assay (SPA). Conditions: SPA; room temperature, 40 minutes; read-out: Enzyme Assays (SPA) IC50. It is filed as biochemical. The text has this: TEST 3-INHIBITION OF PROTEOLYTIC ACTIVITY OF HIV-1-PROTEASE AS DETERMINED BY SCINTILLATION […] ASSAY (SPA).
This is an alternative assay to test #1 and is used to determine the ability of compounds to inhibit the HIV1 protease activity. The SPA assay for HIV1 protease has been developed by Amersham Corporation, Arlington Heights, Ill., and is available for commercial use. In this system the substrate for HIV1 protease, AcN-(I^125)[…]SPA bead, is cleaved by the HIV1 protease at the Phe-Phe bond releasing the I^125 -labelled peptide fragment from the SPA bead. This event causes removal of detectable signal from the microsphere bead indicated by reduction in radioactivity (measured in CPM), which is proportional to the proteolytic activity. The substrate, and the HIV 1 protease were incubated in presence of synthetic compound in various dilutions at room temperature for 40 minutes, and the concentration of the compound required to inhibit the proteolytic activity by 50% (IC50) was determined.
A general note: In a scintillation proximity assay essentially only radioactivity close to the scintillant gives light.

In general, IC50 refers to the concentration that gives 50% inhibition. In the case of `CC(C)(C)NC(=O)c1ccccc1SC[C@H](O)[C@H](Cc1ccccc1)NC(=O)[C@H](CC(N)=O)NC(=O)c1ccc2ccccc2n1` [Compound 2], the IC50 at HIV1 protease [1] is less than 500 nM; with HIV-1, isolate III B, 7.99 µg/mL (≈ 12.4 µM).

Take `CC(C)(C)NC(=O)c1ccccc1SC[C@@H](O)[C@H](Cc1ccccc1)NC(=O)[C@H](CC(N)=O)NC(=O)c1ccc2ccccc2n1` [Compound 3]: the IC50 on HIV1 protease [1] is 54 nM; with HIV-1, isolate III B it was 0.537 µg/mL (≈ 0.837 µM).

For the molecule `CC(C)(C)NC(=O)c1ccccc1OC[C@H](O)[C@H](Cc1ccccc1)NC(=O)[C@H](CC(N)=O)NC(=O)c1ccc2ccccc2n1` [Compound 4], the IC50 was determined as 10 nM on HIV1 protease [1] and 1.7 µg/mL (≈ 2.72 µM) in the experiment with HIV-1, isolate III B.

On to `CC(C)(C)NC(=O)c1ccccc1OC[C@@H](O)[C@H](Cc1ccccc1)NC(=O)[C@H](CC(N)=O)NC(=O)c1ccc2ccccc2n1` [Compound 5], for which the IC50 was 8 nM at HIV1 protease [1] and 1.77 µg/mL (≈ 2.83 µM) with HIV-1, isolate III B. On the same counts, the results for `CC(C)(C)NC(=O)c1ccccc1OC[C@H](O)[C@H](Cc1ccccc1)NC(=O)[C@H](CC(N)=O)NC(=O)c1ccc2ccccc2[n+]1[O-]` [Compound 7] are 50 nM and 5.69 µg/mL (≈ 8.87 µM). For the molecule `CCCCNC(=O)c1ccccc1SC[C@H](O)[C@H](Cc1ccccc1)NC(=O)[C@H](CC(N)=O)NC(=O)c1ccc2ccccc2n1` [Compound 8], the IC50 at HIV1 protease [1] was 400 nM; in the experiment with HIV-1, isolate III B it was 28.1 µg/mL (≈ 43.8 µM). On the same counts, the results for `CC(C)(C)NC(=O)C1CCCC1SCC(O)[C@H](Cc1ccccc1)NC(=O)[C@H](CC(N)=O)NC(=O)c1ccc2ccccc2n1` (stereo partly drawn) [Compound 13] are 300 nM and 5.07 µg/mL (≈ 8 µM). The matching figures for `NC(=O)C[C@H](NC(=O)c1ccc2ccccc2n1)C(=O)N[C@@H](Cc1ccccc1)[C@@H](O)CSC1CCCC1C(=O)Nc1ccccc1` (stereo partly drawn) [Compound 20]: 74 nM and 6.26 µg/mL (≈ 9.57 µM).

As for `CCC(C)[C@H](NC(=O)c1ccc2ccccc2n1)C(=O)N[C@@H](Cc1ccccc1)[C@@H](O)CSc1ccccc1C(=O)NC(C)(C)C` (stereo partly drawn) [Compound 35], the IC50 on HIV1 protease [1] stood at 26 nM; with HIV-1, isolate III B, 2.1 µg/mL (≈ 3.28 µM). On the same counts, the results for `CCC(C)[C@H](NC(=O)c1ccc2ccccc2n1)C(=O)N[C@@H](Cc1ccccc1)[C@@H](O)COc1ccccc1C(=O)NC(C)(C)C` (stereo partly drawn) [Compound 37] are 60 nM and 6.08 µg/mL (≈ 9.73 µM). On the same counts, the results for `CC(C)[C@H](NC(=O)c1ccc2ccccc2n1)C(=O)N[C@@H](Cc1ccccc1)[C@@H](O)CSc1ccccc1C(=O)NC(C)(C)C` [Compound 49] are 80 nM and 19.4 µg/mL (≈ 30.9 µM).

As to `CC(C)(C)NC(=O)c1ccccc1SC[C@H](O)[C@H](Cc1ccccc1)NC(=O)[C@H](CC(N)=O)NC(=O)c1ccc2ccccc2c1` [Compound 52], the IC50 at HIV1 protease [2] is 390 nM; in the experiment on HIV-1, isolate III B, 8.58 µg/mL (≈ 13.4 µM). In the case of `CC(C)(C)NC(=O)c1ccccc1OC[C@H](O)[C@H](Cc1ccccc1)NC(=O)[C@H](CC(N)=O)NC(=O)c1cnc2ccccc2n1` [Compound 59], the IC50 at HIV1 protease [1] came to 5 nM; in the experiment on HIV-1, isolate III B it was 1.41 µg/mL (≈ 2.25 µM). For the molecule `CCC[C@H](NC(=O)[C@H](CC(N)=O)NC(=O)c1ccc2ccccc2n1)[C@H](O)COc1ccccc1C(=O)NC(C)(C)C` [Compound 77], the IC50 in the experiment on HIV-1, isolate III B came to 17.5 µg/mL (≈ 30.3 µM). As for `CC(C)(C)NC(=O)c1ccccc1SC[C@@H](O)[C@H](CC1CCCCC1)NC(=O)[C@H](CC(N)=O)NC(=O)c1ccc2ccccc2n1` [Compound 78], the IC50 at HIV1 protease [2] turned out to be 230 nM; with HIV-1, isolate III B, 0.68 µg/mL (≈ 1.05 µM). Regarding `CC(C)(C)NC(=O)c1ccccc1SC[C@H](O)[C@H](Cc1ccc(O)cc1)NC(=O)[C@H](CC(N)=O)NC(=O)c1ccc2ccccc2n1` [Compound 79], the IC50 is more than 500 nM at HIV1 protease [2] and 9.1 µg/mL (≈ 13.8 µM) in the experiment with HIV-1, isolate III B.

In the case of `CC(C)(C)NC(=O)c1ccccc1OC[C@H](O)[C@H](Cc1ccccc1)NC(=O)[C@H](CC(N)=O)NC(=O)OCc1ccccc1` [IN 1], the half-inhibitory concentration (IC50) worked out at 80 nM on HIV1 protease [2] and 4.95 µg/mL (≈ 8.19 µM) in the experiment with HIV-1, isolate III B.
